Laboratory results from patent US20130178517A1, “Methods And Compositions For Treatment Of Lipogenic Virus Related Conditions” (priority 2010, published 2013).
“Also recorded” adds a separate entry of the source.

Experiments:
Ad-36 in preadipocytes = conditions: preadipocytes in tissue culture; cited from earlier work
[1] = tested on: FAS protein in 3T3-L1 cells; experiment: FAS protein expression (Western blot) in 3T3-L1 preadipocyte cells with MDI and Ad-36; format: cell-based, mouse; conditions: for FAS protein as dosage is increased: 3T3-L1 preadipocyte cells (FIG. 9 as described)
Experimental: The effects of Tridox on FAS protein expression were evaluated in 3T3-L preadipocyte cells. Control cells were maintained without exposure to Ad-36 or to the differentiation cocktail of methyl-isobutyl-xanthine, dexamethasone, and insulin (MDI). See, e.g., Ntambi and CheulKim, J. Nutrition, 120: […] for description of MDI differentiation cocktail.

[2] = tested on: FAS protein in MCF-7 cells infected with Ad-36; experiment: FAS protein expression (Western blot) in MCF-7 cells infected with Ad-36; format: cell-based, human; conditions: Ad-36-infected MCF-7 cells; for FAS protein expression: vs infected untreated control; for amount of FAS protein: range of 10 uM/L to 100 uM/L (FIG. 8)
Experimental: MCF-7 cells were incubated with Adv36 and a range of 10 uM/L to 100 uM/L of Didox or Tridox.
Human breast cancer cells (MCF-7) were infected with Ad-36 virus and treated with antiviral compounds Didox or Tridox. MCF-7 cells were incubated with Ad-36 and a range of about 10 μM/L to about 100 μM/L of Didox or Tridox. The control for the experiments was MCF-7 cells infected with Ad-36 that were not treated with an antiviral compound. Fifty micrograms of protein was loaded per lane on an SDS-PAGE gel, followed by Western blot analysis detecting FAS.

[3] = tested on: MCF-10A cells infected with Ad-36; experiment: Growth rate (cell count) of MCF-10A cells infected with Ad-36; format: cell-based, human; conditions: 5 μM
Experimental: FIG. 11 is a graph showing that luteolin reduces the growth rate of MCF-10A cells infected with Ad-36. […] Over a time course, cells were trypsinized and counted using a hemocytometer. As illustrated, ⋄ refers to mock infected cells incubated without luteolin; □ refers to mock infected cells treated with luteolin; Δ refers to Ad-36-infected cells incubated without luteolin; and × refers to Ad-36-infected cells treated with luteolin.
Luteolin reduces the growth rate of […] (MCF-10A) that have been infected with Ad-36 in tissue culture (FIG. 11). MCF-10A cells were infected with a multiplicity of infection (MOI) of 0.5 at day 0 for 2 hours, then replaced with fresh medium containing 5 μM luteolin or vehicle. At each time period, cells were trypsinzed and counted using a hemocytometer. Fresh luteolin (5 μM) was added on day 0 (after infection), day 3 and day 5 in order to insure a constant concentration of agent. […] The cells infected with Ad-36 and not exposed to luteolin had the highest growth rate, faster than cells without Ad-36. When luteolin is added, cell growth is slowed.

Ad-36 [4] = experiment: Replication of Ad-36 in A549 cells assessed by cytopathic effect (CPE); format: cell-based, human adenovirus 36 in human A549 cells; conditions: multiple different doses, 100 TCID/well, CPE 3 and 4 days post-infection
Experimental: A549 cells were infected with a fixed amount of Ad-36 (100 TCID/well) for 2 hours, then media containing the virus was removed, replaced with serial dilutions of metformin, luteolin, or a combination. Cytopathic effect (CPE) was evaluated 3 days and 4 days post-infection (PI). Each condition had 8 wells. The efficacy of the different drug treatments was evaluated by determining whether there were fewer wells with CPE as compared to the control condition for the different treatment conditions, which reflected the degree to which a particular treatment was working to inhibit the virus.

[5] = tested on: phosphorylated Akt in MCF-10A cells; experiment: Akt phosphorylation (Western blot) in MCF-10A cells with or without Ad-36 infection; format: cell-based, human
Experimental: MCF-10A cells were infected with Ad-36 and treated with luteolin and/or metformin, then Akt phosphorylation was measured using Western blot. The top band is phosphorylated Akt. […] Lane 2 is MCF-10A cells infected with Ad-36 virus. Lane 3 is metformin, MCF-10A cells infected with Ad-36 virus. Lane 4 is uninfected MCF-10A cells treated with metformin. Lane 5 is MCF-10A cells infected with Ad-36 virus and treated with luteolin. Lane 6 is uninfected MCF-10A cells treated with luteolin. Lane 7 is MCF-10A cells infected with Ad-36 and treated with a combination of metformin and luteolin. Lane 8 is uninfected MCF-10A cells treated with a combination of metformin and luteolin.

Ad-36 [6] = experiment: TCID50 of A549 cells exposed to Ad-36; format: cell-based, human adenovirus 36 in human A549 cells
Experimental: “TCID50” refers to 50% tissue culture infective dose (TCID50), an endpoint dilution assay that quantifies the amount of virus required to kill 50% of infected hosts or to produce a cytopathic effect in 50% of inoculated tissue culture cells.
The experimental conditions were assessed: (A) Control condition in which cells were infected with the virus throughout incubation, no luteolin added; (B) Cells and virus were both pretreated with luteolin, then the cells were incubated with both the virus and luteolin; and (C) Cells pretreated with luteolin only, luteolin removed, then cells incubated with virus but without luteolin. The TCID50 value was calculated for each group.

[7] = MCF-10A cells infected with Ad-36 and treated
[8] = uninfected MCF-10A cells treated

## Nc1ccn(C[C@@H](CO)OCP(=O)(O)O)c(=O)n1 [Cidofovir]
Ad-36 in preadipocytes
  lipogenic effect of Ad-36: block the lipogenic effect

## O=C(NO)c1ccc(O)c(O)c1 [Didox, 3,4 dihydrobezohydoxamic acid]
[1]
  FAS protein as dosage is increased: decreased
[2]; about 50 μM
  FAS protein expression: decrease
[2]; about 100 μM
  FAS protein expression: decrease
[2]
  amount of FAS protein: decreased

## NC(=NO)c1cc(O)c(O)c(O)c1 [Tridox, 3,4,5 trihydroxybenzamidoxime]
[1]; 3T3-L1 cells
  infection with Ad-36 (conclusion from FAS data): inhibits infection with Ad-36
[1]; 3T3-L1 cells exposed to Ad-36 in media containing 10 μM
  FAS protein levels: even lower
[1]; 3T3-L1 cells infected with Ad-36, then incubated with MDI and 10 μM
  FAS expression: modest decrease
[1]; 3T3-L1 cells pretreated with compound, then incubated with MDI and Ad-36
  FAS expression: more marked decrease; also recorded: greater decrease
[1]
  FAS protein as dosage is increased: decreased
[2]; about 10 μM
  FAS protein expression: decrease
[2]; about 50 μM
  FAS protein expression: decrease
[2]; about 100 μM
  FAS protein expression: decrease
[2]
  amount of FAS protein: decreased

## O=c1cc(-c2ccc(O)c(O)c2)oc2cc(O)cc(O)c12 [luteolin]
[3]; Ad-36-infected (MOI 0.5) MCF-10A cells
  growth rate (cell number): slowest growth rate; also recorded: slow growth rate
[3]; MCF-10A cells
  cell growth when compound is added: slowed
Ad-36 [4]
  effect of Ad-36 on A549 cells (CPE, replication): inhibits
[5]; [7]
  Akt phosphorylation: marked reduction
[5]; [8]
  Akt phosphorylation: stimulated
Ad-36 [6]; A549 cells, overall conclusion
  virulence of Ad-36 infection / Ad-36 infection: blocks virulence; also recorded: inhibits Ad-36 infection
Ad-36 [6]; Group B: cells and virus pretreated with luteolin, then cells incubated with virus and luteolin, vs control
  TCID50 value: slightly higher than control
Ad-36 [6]; Group C: cells pretreated with luteolin only, luteolin removed, then incubated with virus
  TCID50 value: lowest and low
Ad-36 [6]; second experiment (not shown), same condition as Group B, vs control
  TCID value: increased almost twice as much as the control value

## CN(C)C(=N)N=C(N)N [metformin]
Ad-36 [4]
  effect of Ad-36 on A549 cells (CPE, replication): inhibits
[5]; [7]
  Akt phosphorylation: marked reduction
[5]; [8]
  Akt phosphorylation: stimulated
